12 compounds from ChEMBL document CHEMBL4765394, “From irreversible to reversible covalent inhibitors: Harnessing the andrographolide scaffold for anti-inflammatory action” (Eur J Med Chem, 2020) can be followed below.

Active and inactive are the calls of the source. The rule behind the calls is not given here. A value given as a limit tells only on which side of the number the result lay.

Tested on in one series: not listed separately
The series is described as follows: Aqueous stability of compound. The class given is physicochemical. Conditions: buffer.
In the case of `C=C1CC[C@@H]2[C@](C)(CO)[C@H](O)CC[C@@]2(C)[C@@H]1C/C=C1/C(=O)Nc2ccc(F)cc21`, the Stabilty result is on record as “Stable”.

For the compound `C=C1CC[C@@H]2[C@](C)(CO)[C@H](O)CC[C@@]2(C)[C@@H]1C/C=C1\SC(=S)NC1=O`, the Stabilty entry is listed as “Stable”.

For `C=C1CC[C@@H]2[C@](C)(CO)[C@H](O)CC[C@@]2(C)[C@@H]1C/C=C1\SC(=O)NC1=O`, the Stabilty result was “Stable”.

As to `C=C1CC[C@@H]2[C@](C)(CO)[C@H](O)CC[C@@]2(C)[C@@H]1C/C=C1/C=COC1=O`, the Stabilty result is “Stable”.

On to `C=C1CC[C@@H]2[C@](C)(CO)[C@H](O)CC[C@@]2(C)[C@@H]1/C=C/C1=CCOC1=O`, for which the Stabilty result is reported as “Stable”.

As for `C=C1CC[C@@H]2[C@](C)(CO)[C@H](O)CC[C@@]2(C)[C@@H]1C/C=C1/C(=O)Nc2ccccc21`, the Stabilty result is “Stable”.

With `C=C1CC[C@@H]2[C@](C)(CO)[C@H](O)CC[C@@]2(C)[C@@H]1C/C=C/C(=O)OCC`, the Stabilty entry was “Stable”.

In the case of `C=C1CC[C@@H]2[C@](C)(CO)[C@H](O)CC[C@@]2(C)[C@@H]1C/C=C1\CCOC1=O`, the Stabilty entry is on record as “Stable”.

With `C=C1CC[C@@H]2[C@](C)(CO)[C@H](O)CC[C@@]2(C)[C@@H]1CC=C(C#N)C#N`, the Stabilty entry was “Unstable”.

Tested on in the next series: not listed separately
The series can be described thus: GSH reactivity assessed as GSH adduct formation by measuring reduction in intracellular GSH level at 20 uM measured after 2 hrs by cell-based monochlorobimane fluorometric method. The class given is ADME. Further details: scale not given: the % may be the effect or the level left.
Settings: not given
For `C=C1CC[C@@H]2[C@](C)(CO)[C@H](O)CC[C@@]2(C)[C@@H]1C/C=C1/C=COC1=O`, the Activity is on record as more than 70%.

A further series has as its system RAW264.7. The series can be described thus: Cytotoxicity against mouse RAW264.7 cells assessed as reduction cell viability at 5 to 50 uM measured after 24 hrs by Celltiter-glo assay. Conditions: raw264.7, 24 h, dose 5-50 µM. The class given is cell-based.
On to `C=C1CC[C@@H]2[C@](C)(CO)[C@H](O)CC[C@@]2(C)[C@@H]1C/C=C1\SC(=S)NC1=O`, for which the Activity entry is recorded as “Non-Toxic”.

Take `C=C1CC[C@@H]2[C@](C)(CO)[C@H](O)CC[C@@]2(C)[C@@H]1C/C=C1\SC(=O)NC1=O`: the Activity result is recorded as “Non-Toxic”.

The test system of the next series is RAW264.7. The series is described as follows: Antiinflammatory activity in mouse RAW264.7 cells assessed as inhibition of LPS-induced TNFalpha release at 5 to 10 uM preincubated for 1 hr followed by LPS stimulation and measured after 4 hrs by ELISA. In kind it is functional, cell-based. To be noted: dose 5-10 µM, time 5.0 hrs.
As to `C=C1CC[C@@H]2[C@](C)(CO)[C@H](O)CC[C@@]2(C)[C@@H]1C/C=C1\SC(=S)NC1=O`, the inhibition result is “inactive”.

On to `C=C1CC[C@@H]2[C@](C)(CO)[C@H](O)CC[C@@]2(C)[C@@H]1C/C=C1/C=COC1=O`, for which the inhibition entry is “Active”.

In the case of `C=C1CC[C@@H]2[C@](C)(CO)[C@H](O)CC[C@@]2(C)[C@@H]1/C=C/C1=CCOC1=O`, the inhibition entry is “inactive”.

`C=C1CC[C@@H]2[C@](C)(CO)[C@H](O)CC[C@@]2(C)[C@@H]1C/C=C1/C(=O)Nc2ccccc21`: the inhibition entry is “inactive”.

As to `C=C1CC[C@@H]2[C@](C)(CO)[C@H](O)CC[C@@]2(C)[C@@H]1C/C=C/C(=O)OCC`, the inhibition entry is “inactive”.

On to `C=C1CC[C@@H]2[C@](C)(CO)[C@H](O)CC[C@@]2(C)[C@@H]1C/C=C1\CCOC1=O`, for which the inhibition entry is “inactive”.

Regarding `C=C(CO)C(=O)OC`, the inhibition result is “inactive”.

The subject of a further series is RAW-Blue. The series can be described thus: Inhibition of LPS-induced NF-kappaB activity in mouse RAW-Blue cells assessed as reduction in SEAP reporter activity at 5 to 20 uM preincubated for 1 hr followed by LPS stimulation and measured after 8 hrs by SEAP reporter gene assay. In kind it is cell-based. Conditions: dose 5-20 µM, time 9.0 hrs.
Regarding `C=C1CC[C@@H]2[C@](C)(CO)[C@H](O)CC[C@@]2(C)[C@@H]1C/C=C1/C=COC1=O`, the inhibition entry is “Active”.

A further series concerns RAW264.7. The series is described as follows: Antiinflammatory activity in mouse RAW264.7 cells assessed as inhibition of LPS-induced IL6 release at 5 to 10 uM preincubated for 1 hr followed by LPS stimulation and measured after 24 hrs by ELISA. In kind it is functional, cell-based. To be noted: dose 5-10 µM, time 25.0 hrs.
In the case of `C=C1CC[C@@H]2[C@](C)(CO)[C@H](O)CC[C@@]2(C)[C@@H]1C/C=C1/C(=O)Nc2ccc(F)cc21`, the inhibition entry is “inactive”.

Consider `C=C1CC[C@@H]2[C@](C)(CO)[C@H](O)CC[C@@]2(C)[C@@H]1C/C=C1\SC(=S)NC1=O`, for which the inhibition result is “inactive”.

Regarding `C=C1CC[C@@H]2[C@](C)(CO)[C@H](O)CC[C@@]2(C)[C@@H]1C/C=C1\SC(=O)NC1=O`, the inhibition entry is “inactive”.

As for `C=C1CC[C@@H]2[C@](C)(CO)[C@H](O)CC[C@@]2(C)[C@@H]1C/C=C1/C=COC1=O`, the inhibition result is “Active”.

In the case of `C=C1CC[C@@H]2[C@](C)(CO)[C@H](O)CC[C@@]2(C)[C@@H]1/C=C/C1=CCOC1=O`, the inhibition result was “inactive”.

With `C=C1CC[C@@H]2[C@](C)(CO)[C@H](O)CC[C@@]2(C)[C@@H]1C/C=C1/C(=O)Nc2ccccc21`, the inhibition entry was “inactive”.

For `C=C1CC[C@@H]2[C@](C)(CO)[C@H](O)CC[C@@]2(C)[C@@H]1C/C=C/C(=O)OCC`, the inhibition entry is “inactive”.

On to `C=C1CC[C@@H]2[C@](C)(CO)[C@H](O)CC[C@@]2(C)[C@@H]1C/C=C1\CCOC1=O`, for which the inhibition entry is “inactive”.

Regarding `C=C(CO)C(=O)OC`, the inhibition entry was “inactive”.

Another series has as its system RAW-Blue. The series can be described thus: Inhibition of LPS-induced NF-kappaB activity in mouse RAW-Blue cells assessed as reduction in SEAP reporter activity at 5 to 20 uM preincubated for 1 hr followed by LPS stimulation and measured after 24 hrs by SEAP reporter gene assay. Conditions: dose 5-20 µM, time 25.0 hrs. In kind it is cell-based.
As to `C=C1CC[C@@H]2[C@](C)(CO)[C@H](O)CC[C@@]2(C)[C@@H]1C/C=C1/C=COC1=O`, the inhibition result is “inactive”.

For another series, the system named is RAW264.7. The series can be described thus: Cytotoxicity against BSO-treated mouse RAW264.7 cells assessed as reduction cell viability measured after 24 hrs by Celltiter-glo assay. The class given is cell-based. Conditions: raw264.7, 24 h, dose 10-20 µM.
Take `C=C1CC[C@@H]2[C@](C)(CO)[C@H](O)CC[C@@]2(C)[C@@H]1C/C=C1\CCOC1=O`: the CC50 was more than 30 µM.

Another series concerns the target T1, Nuclear factor NF-kappa-B p105 subunit (Homo sapiens) (UniProt P19838).
T1 sequence (whole entry): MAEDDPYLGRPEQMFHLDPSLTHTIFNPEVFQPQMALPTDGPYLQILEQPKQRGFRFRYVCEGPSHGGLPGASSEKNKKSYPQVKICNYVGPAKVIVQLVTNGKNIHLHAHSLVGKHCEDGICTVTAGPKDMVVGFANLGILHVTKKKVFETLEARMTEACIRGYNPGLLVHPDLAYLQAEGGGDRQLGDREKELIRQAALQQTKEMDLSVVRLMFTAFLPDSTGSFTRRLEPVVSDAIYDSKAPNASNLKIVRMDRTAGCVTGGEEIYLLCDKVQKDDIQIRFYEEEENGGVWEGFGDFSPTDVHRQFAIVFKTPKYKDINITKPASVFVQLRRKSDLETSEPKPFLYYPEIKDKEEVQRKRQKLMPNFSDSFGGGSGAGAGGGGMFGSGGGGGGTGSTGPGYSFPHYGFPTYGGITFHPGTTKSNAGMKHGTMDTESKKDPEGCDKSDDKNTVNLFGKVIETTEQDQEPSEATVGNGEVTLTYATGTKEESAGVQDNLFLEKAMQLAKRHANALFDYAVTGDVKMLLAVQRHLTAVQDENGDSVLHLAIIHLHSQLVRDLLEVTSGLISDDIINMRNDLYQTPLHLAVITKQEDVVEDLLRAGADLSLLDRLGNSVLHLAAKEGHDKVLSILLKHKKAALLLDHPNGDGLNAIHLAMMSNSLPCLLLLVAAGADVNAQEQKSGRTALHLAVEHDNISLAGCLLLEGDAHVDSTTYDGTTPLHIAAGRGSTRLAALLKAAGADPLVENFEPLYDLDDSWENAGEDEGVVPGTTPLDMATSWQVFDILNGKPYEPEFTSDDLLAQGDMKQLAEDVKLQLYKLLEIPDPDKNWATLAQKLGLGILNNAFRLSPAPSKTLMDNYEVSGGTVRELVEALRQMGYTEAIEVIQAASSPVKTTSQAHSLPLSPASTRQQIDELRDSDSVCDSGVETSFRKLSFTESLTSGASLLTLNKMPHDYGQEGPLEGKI
The series can be described thus: Inhibition of DNA binding activity of human NF-kappaB p50 at 200 uM measured after 1 hr by ELISA.
Settings: not given
`CC(=O)CCC[C@@H]1[C@@H](C)CC[C@@H]2[C@](C)(CO)[C@H](O)CC[C@]21C`: the inhibition result was “inactive”.

As for `C=C1CC[C@@H]2[C@](C)(CO)[C@H](O)CC[C@@]2(C)[C@@H]1C/C=C/C(C)O` (stereo partly drawn), the inhibition entry was “inactive”.
